Assays:
[1] = tested on: 320DM human colon cancer cells; assay: DNA synthesis by [3H]-thymidine incorporation, 320DM cells; format: cell-based
Protocol: (§1) Cells were cultured in MEM supplemented with 10% FCS and antibiotics. Cells were grown to subconfluence and then treated with various hormones or agents as described by Somjen et al. (Somjen et al., 1998). The cells were characterized in terms of expression of mRNAs for estrogen […] by real time PCR, and the results are summarized in Table 1. N87, 320DM and H295R cells expressed mRNAs for both ERs. The ratio of ERα to ERβ was 1:8.5, 1:30 and 1:1.8 in N87, 320DM and H295R cells, respectively. Ovarian A2780 and prostate C4-24 cells expressed mainly mRNA for ERβ, and the ratio of ERβ to ERα was 300:1 and 70:1, respectively. MLS ovarian cells expressed mRNA only for ERβ. The ratio of ERα to ERβ in T47D cells has been reported to be 9:1.
[^3H]-Thymidine incorporation into DNA was used for the assessment of the various effects (proliferative or inhibitory) of various isoflavones, isoflavone derivatives and known cytotoxic drugs in the above-mentioned cells. Cells were grown until subconfluence using conditions described in Somjen et al. […] At the end of incubation, [^3H]-thymidine was added for two hours. Cells were then treated with 10% ice-cold trichloroacetic (TCA) for 5 min and washed twice with 5% TCA and then with cold ethanol. The cellular layer was dissolved in 0.3 ml of 0.3 M NaOH, aliquots were taken for counting radioactivity, and [^3H]-thymidine incorporation into DNA was calculated.

[2] = tested on: T47D mammary cancer cells; assay: DNA synthesis by [3H]-thymidine incorporation, T47D cells; format: cell-based, human; details: Homo sapiens
Protocol: as §1
[^3H]-Thymidine incorporation into DNA was used for the assessment of the various effects (proliferative or inhibitory) of various isoflavones, isoflavone derivatives and known cytotoxic drugs in the above-mentioned cells. Cells were grown until subconfluence using conditions described in Somjen et al. (Somjen et al., 1998) and then treated with various agents for 24 or 48 h as indicated. At the end of incubation, [^3H]-thymidine was added for two hours. Cells were then treated with 10% ice-cold trichloroacetic (TCA) for 5 min and washed twice with 5% TCA and then with cold ethanol. The cellular layer was dissolved in 0.3 ml of 0.3 M NaOH, aliquots were taken for counting radioactivity, and [^3H]-thymidine incorporation into DNA was calculated.

[3] = tested on: OVCAR-4 ovarian cancer cell line; assay: NCI In Vitro Cell Line Screening, OVCAR-4; format: cell-based; details: Homo sapiens, read-out: log10 GI50 (converted)
Protocol: An in vitro cell line screen for the t-boc derivative of daidzein (compound 9) was performed at the NCI/NIH US utilizing the In Vitro Cell Line Screening Project (IVCLSP) (National Cancer Institute, Developmental Therapeutics Program, Information Technology Branch, Rockville, Md., USA).
The operation of this screen utilized 60 different human tumor cell lines, representing leukemia, melanoma and cancers of the lung, colon, brain, ovary, breast, prostate, and kidney. […] Using these algorithms, it is possible to assign a putative mechanism of action to a test compound, or to determine that the response pattern is unique and not similar to that of any of the standard prototype compounds included in the NCI database.
To facilitate analysis of the data, three endpoints were calculated for each cell line: The GI50 value, which is the negative log10 of the concentration required to inhibit the growth of that cell line by 50% (relative to untreated cells); TGI, the negative log10 of minimum concentration that causes total growth inhibition; and LC50, which reflects the negative log10 concentration needed to kill 50% of the cells. A Mean Graph was used as a way of easily visualizing the results from all 60 cell lines at once. To generate this graph, the mean of GI50 values across all 60 cell lines was calculated. […]

Q: What does the source list for `CC(C)(C)OC(=O)NCCCCCCNC(=O)COc1ccc2c(=O)c(-c3ccc(O)cc3)coc2c1` [Compound 9]?
A: incubation time at which plateau of inhibition of DNA synthesis was reached [1]: 72 h; DNA synthesis, ratio experimental/control (E/C) ([1]; 9 (0.3 μM) + E2 30 nM): 1.08 ± 0.16; DNA synthesis, ratio experimental/control (E/C) ([1]; 9 (0.3 μM) + E2 0.3 μM): 1.90 ± 0.05; anti-proliferative effect in presence of apoptosis inhibitor ([1]; 9 at 0.3 μM + Z-VADFK): the anti-proliferative effect of 9 was not discernible; DNA synthesis, ratio experimental/control (E/C) ([1]; 9 at 0.3 μM + Z-VADFK (25 μM)): 1.18 ± 0.14; suppression of the proliferative effect of estradiol ([1]; 9 at 0.3 μM + estradiol 300 nM): could not suppress its proliferative effect; DNA synthesis, ratio experimental/control (E/C) ([1]; 9 at 0.3 μM alone (Table 3)): 0.63 ± 0.11; DNA synthesis, ratio experimental/control (E/C) ([1]; 9 at 0.3 μM alone (Table 4)): 0.68 ± 0.14; DNA synthesis, ratio experimental/control (E/C) ([1]; 9 at 3 μM + Z-VADFK (25 μM)): 0.5 ± 0.11; DNA synthesis, ratio experimental/control (E/C) ([1]; 9 at 3 μM alone (Table 4)): 0.04 ± 0.22; effect on [3H]-thymidine incorporation into DNA ([1]; 15 to 6000 nM): dose dependent decreases; inhibition at 0.3 µM ([1]; Homo sapiens, 9 at 0.3 μM alone): 32%; inhibition at 3 µM ([1]; Homo sapiens, 9 at 3 μM alone): ≤ 96%; DNA synthesis, ratio experimental/control (E/C) ([1]; compound at 3 μM): 0.08 ± 0.01; DNA synthesis (% of control) ([1]; estradiol 30 nM + 0.3 μM compound 9): 100%; inhibition at 10 µM [2]: 24 to 40%; GI50 [3]: 407 nM
